Laboratory results taken from patent US20070105810A1, “THERAPEUTICS” (priority 2003, published 2007).
“Also recorded” adds a separate entry of the source.

Experiments:
[1] = system: IP3-induced Ca2+ signal in Jurkat T cells; experiment: Ca2+ signalling evoked by microinjection of IP3 in Jurkat T cells; type: cell-based, human; conditions: co-injection of BZ52 1 mM with IP3 4 μM
Method: NAADP (final concentration 100 nM), IP3 (final concentration 4 μM), and BZ52 (final concentration 1 mM) were injected into single Jurkat T cells while [Ca^2+]i was analyzed by Ca^2+ imaging. Data are presented as mean±SEM (n=4 to 13).
The Jurkat T cells were loaded with fura-2/AM and kept in the dark at room temperature until use. Glass coverslips were coated first with BSA (5 mg/ml) and subsequently with poly-L-lysine (0.1 mg/ml). Small chamber slides consisting of a rubber O-ring were sealed on thin (0.1 mm) glass coverslips by silicon grease. Then, 60 μl buffer A containing 140 mM NaCl, 5 mM KCl, 1 mM MgSO4, 1 mM CaCl2, 1 mM NaH2PO4, 5.5 mM glucose, and 20 mM HEPES (pH 7.4), and 40 μl cell suspension (2*10^6 cells/ml) suspended in the same buffer were added into the small chamber and the coverslip was mounted on the stage of a fluorescence microscope (Leica DM IRE2).
Ratiometric Ca^2+ imaging was performed as described earlier. In brief, we used an Improvision imaging system (Heidelberg, Germany) built around the Leica microscope at 100-fold magnification. Illumination at 340 and 380 nm was carried out using a monochromator system (Polychromator IV, TILL Photonics, Graefelfing, Germany). Images were taken with a gray-scale CCD camera (type C4742-95-12ER; Hamamatsu, Enfield, United Kingdom; operated in 8-bit mode). […]

rat MBP-specific T cells = experiment: Cytokine (IL2 mRNA) expression of in vitro-cultured MBP-specific T cells, quantitative PCR; type: cell-based; conditions: IL2 quantitative PCR after 48 h
Method: Cells were stimulated in presence of MBP-pulsed irradiated APCs and increasing concentrations of BZ194. After 48 h cells were collected for cytofluorometric cell count A and RNA extraction was performed for quantitative PCR analysis (IL2) B. Effect of BZ194 on pre-activated T cell blasts C. Amplification of MBP-specific T cells which had been incubated before in the presence of DMSO or 0.5 mM or 1 mM BZ194 D.
(§1) mRNA was extracted using standard protocols (Sigma-Aldrich) and reversed to cDNA (Invitrogen). Taqman analysis was performed as reported (Flügel et al. 2001, Immunity) using ABI Prim 7700 Sequence Detector “Taqman” (PE Applied Biosystems). The expression of a housekeeping gene (b-actin) was set into relation to the specific mRNA. Data were obtained by independent duplicate measurements.
BZ194 strongly influenced the function of rat MBP-specific T cells in vitro and in vivo. Proliferation and cytokine expression of the T cells was tested in vitro after incubation with irradiated MBP-pulsed thymic antigen presenting cells (in rats the commonly used APC type, ref. 5). […] Additionally, the expression of cytokine production by the T cells was reduced (FIG. 18B). Importantly, these effects were not due to toxicity of BZ194.

Solubility = type: physicochemical; conditions: excluded intravenous application
TMBP-GFP cells = experiment: Intravital videomicroscopy: motility of TMBP-GFP cells in the spleen; type: in vivo, rat; conditions: 3 d after T cell transfer, 6.5 μm/min in DMSO-treated controls, preliminary
Method: Intravital videomicroscopy of the spleen of vehicle (DMSO, left) A or BZ194 B-treated animals 3 d after T cell transfer. The ratio between stationary and motile MBP-specific GFP T cells (upper graphs) and cell trajectories (lower graphs, 10 min analysis) are shown. Stationary cells are defined as cells moving less than 10 μm in 10 minutes.
Animals were anesthetized by intraperitoneal injection of xylazine/ketamine (10 mg/kg and 50 mg/kg, respectively), with reapplied doses (1 mg/kg xylazine/5 mg/kg ketamine) administered as required. Adequate oxygenation was ensured by an oxygen (95% O2/5% CO2) mask fixed on the animal's snout. Body temperature was controlled by a heated pad. For spleen imaging temperature and moistness controlled chambers were constructed for inverted microscope settings. Surgically exposed spleens with intact vasculature were carefully placed into the chambers superfused with carbogenated HBSS (95% O25% CO2).
Time-lapse recordings were performed using an inverted microscope (Zeiss, Axiovert 200M) equipped with a 20×, 0.4 NA objective (Zeiss). Images were acquired using a Coolsnap-HQ camera (Photometrics, Roper Scientific, Tuscon, Ariz.) in 30 s time intervals and processed by MetaMorph (Visitron Systems, Puchheim, Germany). Image J software (freeware, provided by Wayne Rasband, NIH) was used to evaluate cell trajectories and velocity.

[2] = system: cytokine production (IL-2, IFNγ, TNFα, IL-2 receptor mRNA); experiment: Quantitative PCR of cytokine mRNA in spinal cord and spleen of EAE animals; type: in vivo, rat; conditions: spinal cord tissue 4 days after T cell transfer; BZ194 5 d, 500 μmol; relative to β actin and CD3
Method: Quantitative PCR of spinal cords and spleens 4 days after T cell transfer of animals treated with vehicle (DMSO) of BZ 194 (5 d, 500 μmol). IFNg A,B and IL-2 C,D mRNAs were measured in relation to housekeeping gene β actin A,C or T cell marker CD3 B,D.
as §1

| Structure (SMILES) | IP3-induced Ca2+ signal [1] | cytokine (mRNA) production in vitro (rat MBP-specific T cells) | solubility (Solubility) | average velocity of TMBP-GFP cells (TMBP-GFP cells) | cytokine (mRNA) production ex vivo [2] |
| --- | --- | --- | --- | --- | --- |
| CCCCN(CCCC)C(=O)C[n+]1cccc(C(=O)O)c1 [BZ52, 3-Carboxy-1-dibutylcarbamoylmethyl-pyridinium] | no difference | – | – | – | – |
| CCCCCCCCNC(=O)C[n+]1cccc(C(=O)O)c1.[Br-] [BZ194, 3-Carboxy-1-Octylcarbamoylmethyl-Pyridinium] | – | suppressed; also recorded: reduced | Limited | 3.5 μm/min | suppressed; also recorded: significant reduction |
